In US5037957A, “Cysteine proteinase inhibitor” (priority 1987, dated 1991):

Experiments:
papain = target: T1, papain (Carica papaya, UniProt P00784); format: biochemical; conditions: for apparent rate constant (k'+2, second order) for inactivation of papain: 12-fold molar excess of inhibitor, papain 2×10^-8 M, pH 6.5, 22° C
T1 construct: purchased Sigma type III
T1 sequence (P00784 134-345): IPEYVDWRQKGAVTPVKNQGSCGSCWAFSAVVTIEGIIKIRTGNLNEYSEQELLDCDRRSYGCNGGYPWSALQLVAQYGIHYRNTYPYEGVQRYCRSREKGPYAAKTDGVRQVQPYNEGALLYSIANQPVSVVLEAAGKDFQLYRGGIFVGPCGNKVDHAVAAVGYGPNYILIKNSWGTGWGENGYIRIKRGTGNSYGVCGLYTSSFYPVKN
Protocol: Activity determination of papain was performed according to Barrett et al (ibid.), using Z-Phe-Arg-NHMec as substrate in 0.1M phosphate buffer, pH 6.5/1 mM DTT/1 mM EDTA at room temperature (22° C). All test dilutions were performed in 0.01% Brij 35. The reaction was started by substrate addition (20 μM final concentration) and stopped 10 minutes later by the addition of an equal volume of 0.1M NaCH2 Cl/NaAc, pH 4.3. Released fluorogen product was measured in a Perkin-Elmer MPF-43A spectrofluorimeter (excitation 360 nm, emission 460 nm) against a blank with the same contents as the test solution where chloroacetate had been added before the addition of enzyme/substrate.
The molar active concentration of the papain solution used was determined by titration with E-64 (Barrett et al., ibid.). Stock solutions (1 mM) of LVG and VG were prepared by weighing 10 μmol of the respective peptidyl diazomethyl ketone which was thereafter dissolved in 500 μl acetonitrile (LVG) or 100 μl DMSO (VG), whereupon the volumes were adjusted to 10 ml with water. The exact concentration of peptidyl diazomethyl ketone was experimentally established, such that the reaction proceeded within a reasonable time with regard to the measuring technique used. Enzyme (2×10^-8 M final concentration) and peptidyl diazomethyl ketone were mixed at zero time. 25 μl samples were withdrawn at suitable times (15 s-10 min.) and therafter immediately added to mixtures for enzyme activity determination (see above). The dilution then obtained efficiently stopped continued reaction between enzyme and peptidyl diazomethyl ketone.
Evaluation of experimental data was made in the manner described by Barret et al. (ibid.), where
When i>>e, the following equation applies to the kinetics of inactivation: [formula] where ao is enzyme activity (here measured as amount of released fluorogen product from the substrate Z-Phe-Arg-NHMec) at zero time, and at is enzyme activity at time t.
The apparent rate constant k'+2 (second order) for the inactivation in the scheme
was caculated as kobs /i.
Papain was incubated with LVG and VG in a 12-fold molar excess, and samples were withdrawn at different times for determining residual enzyme activity.

human calpain = human calpain (Homo sapiens, UniProt P07384); conditions: calpain 2.5 μg/ml, 30 min at 37° C, pH 7.5
Protocol: Isolated human calpain (0.15 mg/ml) in 20 mM Tris buffer, pH 7.5/5 mM CaCl2 /6 mM dithiothreitol was supplied with a substrate (0.4% casein in 0.1 M imidazole buffer, pH 7.5/5 mM CaCl2 /6 mM dithiothreitol) and different amounts of LVG. After incubation for 30 min. at 37° C., the reaction was stopped by the addition of trichloroacetic acid to a final concentration of 2.5%, and the samples were centrifuged, whereupon the absorption of the supernatant at 280 nm was measured.

group-A streptococci [1] = conditions: 0.2 mg LVG intraperitoneally 45 min after lethal dose of group-A streptococci; five mice per group; none of the five controls alive
Protocol: Ten mice were injected intraperitoneally with lethal doses of group-A streptococci. Five of them received after a period of 45 min. 0.2 mg LVG in 0.5 ml 1% dimethyl sulfoxide in physiological sterile saline by a second intraperitoneal injection.

streptococcal proteinase = streptococcal proteinase (Streptococcus pyogenes serotype M1, UniProt P0C0J1); conditions: proteinase 0.0625 mg/ml, 5 min preincubation at 37° C, azocasein 15 min
Protocol: The isolated streptococcal proteinase (15 mg/ml) was diluted to 0.0625 mg/ml with 0.4M phosphate buffer, pH 6.5/4 mM EDTA/4 mM DTT and then activated by incubation at 37° C. for two hours. To a constant volume of the active streptococcal proteinase was thereafter added a constant volume of LVG solutions with increasing LVG concentration. After incubation for 5 min. at 37° C., the substrate azocasein was added and after additional incubation for exactly 15 min. at 37° C., the reaction was stopped by the addition of 20% TCA (trichloroacetic acid). The samples were centrifuged and the absorbancy of the supernatant was read at 366 nm.

group-A streptococci [2] = system: group-A streptococci
Protocol: Group-A streptococci were cultured on blood agar discs as in routine diagnosis for determining sensitivity to antibiotics. The discs applied on the culture gel and used for supplying different types of known antibiotics were this time soaked instead with 20 μl of a solution having an LVG concentration of 1 mM. […] (MIC=minimal inhibiting concentration).

trypsin = trypsin (Bos taurus, UniProt P00760); conditions: 250-fold molar excess, even after incubation for one hour
Protocol: Trypsin activity at pH 7.5 was measured at room temperature (22° C.) on samples in buffer with a final concentration of 25 mN Tris/25 mM CaCl2 The reaction was started by the addition of Bz-DL-Arg-pNA to 2.5 mN final concentration and stopped after 10 minutes by the addition of an equal volume of 50% (v/v) HAc. Released paranitroaniline was meausred spectrophotometrically (Perkin-Elmer 550S) at 405 nm. Absorbancy values for blank (HAc addition before enzyme/substrate addition) were subtracted before evaluation.

| Substance | inhibition of papain (papain) | behaviour as substrate for papain (papain; cleaved at the glycine-glycine peptide bond) | final concentration of LVG giving complete inhibition of calpain (human calpain) [µM] | mice still alive after one day (group-A streptococci [1]) | LVG concentration sufficient to give total inhibition of streptococcal proteinase activity (streptococcal proteinase) [µM] | effect on bacterial growth when a molar excess of isolated streptococcal proteinase was added to the LVG solution (group-A streptococci [2]; LVG solution premixed with molar excess of streptococcal proteinase before application to cultures) | inhibition of growth of group-A streptococci on blood agar (group-A streptococci [2]; discs soaked with 20 μl of 1 mM LVG, all tested isolates and reference strains) | MIC (minimal inhibiting concentration) for group-A streptococci (group-A streptococci [2]; growth in free solution) | inhibition of trypsin enzyme activity (trypsin) | apparent rate constant (k'+2, second order) for inactivation of papain (papain) [M⁻¹ s⁻¹] | effectiveness as papain inhibitor relative to VG (papain; LVG versus VG) |
| --- | --- | --- | --- | --- | --- | --- | --- | --- | --- | --- | --- |
| synthetic peptide corresponding to position 4-21 in cystatin C: synthetic peptide corresponding to position 4-21 in cystatin C (synthesized on request by Ferring AB, Malmo, Sweden) (GKPPRLVGGPMDASVEEE; UniProt P01034 30-47, looked up, fragment) [reference compound] | does not at all inhibit | excellent substrate | – | – | – | – | – | – | – | – | – |
| N-benzyloxycarbonyl-leucyl-valyl-glycine diazomethyl ketone [LVG] | – | – | 1 | five | 10 | no effect on the bacterial growth | effectively inhibited in growth | about 1 μg/l | no inhibition | 300000 | about 100 times |
| N-t-butyloxycarbonyl-valyl-glycine diazomethyl ketone [VG] | – | – | – | – | – | – | – | – | no inhibition | 5000 | – |
